Legend:
BR16 CTC-derived cells = experiment: FDA-approved compound screen for CTC cluster dissociation (high content imaging); format: cell-based, human; settings: even at lowest concentration tested (0.1 μM), 2 days, hypoxia
Experimental: In order to identify actionable vulnerabilities of CTC clusters, and to test whether the epigenetic and transcriptional features of clustered CTCs are reversible upon cluster dissociation into single cells the following steps were undertaken. First, the expression of all known cell-cell junction (CCJ) components in patient samples obtained from normal breast (TGCA REF), breast cancer (TOGA REF), single CTCs and CTC clusters were assessed (Aceto et al. Cell 2014). While breast cancer cells tend to only partially reduce their CCJ repertoire compared to normal breast cells, CTCs express only a small fraction of CCJ components, likely as a consequence to their increased motility. Yet, CTC clusters retain a higher number of CCJs as compared to single CTCs. […] To this end, 2′486 FDA-approved compounds were evaluated for their ability to dissociate clusters of human breast CTC-derived cells. Cluster dissociation was assessed using a high content screening microscope and comparing cells treated with each individual compound to steady state clustered BR16 cells and 40 μm-filtered BR16 single cell suspension as negative and positive controls, respectively (FIG. 4a). […] For the majority of the 2′486 FDA-approved compounds, when using a 5 μM concentration for 2 days in hypoxic conditions, no detectable reduction in cell viability (>70% viability) nor mean cluster size (>450 μm2) in BR16 CTC-derived cells was observed. […] These compounds include inhibitors of Na^+/K^+ ATPases (n=6), HDACs (n=2), nucleotide biosynthesis (n=5), kinases (n=4), GPCRs (n=2), cholesterol biosynthesis (n=1), nuclear export (n=1), tubulin (n=9), as well as DNA binding compounds (n=8) and antibiotics (n=1).
A library containing 2,486 FDA-approved compounds was purchased from the Nexus Platform ETH Zurich. Each compound was resuspended using CTC medium at a 15 μM concentration and 20 μl were aliquoted in duplicate in a total of 64 Flat Bottom Clear Ultra Low attachment 96-well plates (Corning, Cat #3474).
To reduce cluster size in CTC derived cell lines, a 40 μm cell strainer was used (Corning, Cat #431750). […] Plates were incubated in hypoxia (5% oxygen) for 2 days and then 20 μl were transferred into a 96 well Black/clear Tissue culture treated plate (BD Falcon, Cat #353219) containing 40 μl of D-PBS (Invitrogen, Cat #14190169) and stained for 1 hr at 37° C. with a final concentration of 4 μM Hoechst 34580 (Invitrogen, Cat #H21486), 2 μM TMRM (Invitrogen, Cat #T668) and 4 μM TOTO-3 (Invitrogen, Cat #T3604). For each plate, two positive controls (non-treated cells) and two negative controls (non-treated and […] cells) were included. Z-factors were calculated per individual plate using the following formula: Z′=1−3(σs+σc)/|μs−μc|^3 (σ: standard deviation, μ: mean, s: positive control and c: negative control) (Martin et al., PLoS One 9, e88338, 2014) and ranged between 0.62-0.937. Plates were scanned using Operetta High Content Imaging System (Perkin Elmer) and cluster analysis was performed using Harmony High Content Imaging and Analysis Software (Perkin Elmer).

BR16 xenografts = experiment: BR16 xenograft (mammary fat pad), spontaneous CTC clusters and metastasis; format: in vivo, NSG mice; settings: ouabain daily for three weeks
Experimental: Blood specimens for CTC analysis were obtained from University Hospital Basel after informed patient consent according to protocol EKNZ BASEC 2016-00067 and EK 321/10, which received ethical approval from the Swiss authorities (EKNZ, Ethics Committee northwest/central Switzerland). An average of 7.5 ml of blood per patient was drawn in EDTA vacutainers. Within 1 hr from blood draw, the blood was processed through Parsortix GEN3D6.5 Cell Separation Cassette (Angle Europe). For mouse studies, blood was retrieved via cardiac puncture and 1 ml of blood was similarly processed through a Parsortix device. Captured CTCs were further stained on Parsortix cassette with EpCAM-AF488 conjugated (CellSignaling, Cat #CST5198), HER2-AF488 (#324410, BioLegend), EGFR-FITC conjugated (GeneTex, Cat #GTX11400) and CD45-BV605 conjugated (Biolegend, Cat #304042 (anti-human); Cat #103140 (anti-mouse)) antibodies. For all other models (xenografts), carrying cancer cells stably expressing a GFP-Luciferase reporter, only anti-CD45 staining was performed, while CTCs were identified based on GFP expression. The number of captured CTCs, including single CTCs, CTC clusters and CTC-WBC clusters, was determined while cells were still in the cassette. CTCs were then released from the cassette in DPBS (#14190169, Gibco) onto ultra-low attachment plates (#3471-COR, Corning). Representative pictures were taken at 40× magnification with Leica DM14000 fluorescent microscope using Leica LAS and analyzed with ImageJ.
For tail vein experiments, NOD SCID Gamma (NSG) mice (Jackson Labs) were injected with 1×10^6 BR16-mCherry cells resuspended in 100 μl D-PBS and monitored with IVIS Lumina II (Perkin Elmer). For CTC xenograft mouse model isolation, 1×10^6 LM2-GFP, 1×10^6 BRx50-GFP or 1×10^6 BR16-GFP cells were resuspended in 100 μl of 50% Cultrex PathClear Reduced Growth Factor Basement Membrane Extract (R&D Biosystems, Cat #3533-010-02) in D-PBS and injected orthotopically in NSG mice. Blood draw was performed 4-5 weeks after tumor onset for LM2 cells, 5-6 months after tumor onset for BR16 and 6-7 months after tumor onset for BRx50 cells.

LM2 xenografts = experiment: LM2 xenograft, spontaneous CTC clusters and metastasis; format: in vivo, NSG mice; settings: LM2 tumors; ouabain treatment

C[C@@H]1O[C@@H](O[C@H]2C[C@@H](O)[C@]3(CO)[C@H]4[C@H](O)C[C@]5(C)[C@@H](C6=CC(=O)OC6)CC[C@]5(O)[C@@H]4CC[C@]3(O)C2)[C@H](O)[C@H](O)[C@H]1O [ouabain, Ouabain]
mean cluster size (BR16 CTC-derived cells): significant decrease in mean cluster size | frequency of single CTCs (BR16 xenografts): increasing the frequency | frequency of spontaneously-generated CTC clusters (BR16 xenografts): reduced the frequency | overall CTC numbers (BR16 xenografts): without altering | size of the primary tumor (BR16 xenografts): without altering | suppression of the total metastatic burden (BR16 xenografts): 80.7 fold | CTC clusters (proportion) (LM2 xenografts): decrease in CTC clusters | metastatic burden compared to control (LM2 xenografts): reduced metastatic burden | overall CTC numbers (LM2 xenografts): without any change | primary tumor size (LM2 xenografts): without any change | proportion of single CTCs (LM2 xenografts): increase in the proportion of single CTCs
